The values that follow are results of earlier work, collected in patent US20070025948A1, “Dilution-type sterilizer composition” (Dainippon Sumitomo Pharma Co. Ltd, priority 2003, published 2007).

For data set [1] the following is noted: 20° C.
The conditions of data set [2]: hydrophilic-lipophilic balance, from new Surfactant Handbook.

Molecules are shown by their SMILES. Structures can show the parent of a compound that is named as a salt. Where two headings read alike, the source gives them in different places.

Take `[H]/N=C(\N/C(=N/[H])NCCCCCCNC(=N)NC(=N)Nc1ccc(Cl)cc1)Nc1ccc(Cl)cc1` [Chlorhexidine]: in data set [1], the solubility in water was 0.08 w/v %. Turning to `[H]/N=C(\N/C(=N/[H])NCCCCCCNC(=N)NC(=N)Nc1ccc(Cl)cc1)Nc1ccc(Cl)cc1` [chlorhexidine gluconate], in data set [1], the solubility in water entry was “not less than 50 w/v %”. On to `[H]/N=C(\N/C(=N/[H])NCCCCCCNC(=N)NC(=N)Nc1ccc(Cl)cc1)Nc1ccc(Cl)cc1` [chlorhexidine hydrochloride], for which, in data set [1] (hydrochloride), the solubility in water is reported as 0.06 w/v %. For `CCCCCCCCCCCCOS(=O)(=O)[O-].[Na+]` [sodium lauryl sulfate], in data set [2], the HLB is reported as ~40. Regarding `CCCCCCCCCCCCCCCCCC(=O)[O-].[Na+]` [sodium stearate], the HLB in data set [2] is on record as 18.
